In US10844351B2, “Method for producing otic progenitors” (priority 2015, dated 2020):

Key:
Format in all cases: cell-based, human
[1] = test system: H14S9 hES cell line; test: QPCR of ectoderm, mesoderm and endoderm lineage marker gene expression after 12 day otic differentiation
Description: With the H14S9 hES cell line, 12 day otic differentiation experiments were carried out in control DFNB, FGF, or FGF with 10 μM IWR-1-endo supplemented medium. Gene expression of the three germ layer lineages relative to the baseline DFNB condition were quantified by QPCR. Two gene markers for each germ layer were investigated; PAX6 and NEST/N (ectoderm), BRACHYURY and MEOX1 (mesoderm), and AFP and GATA6 (endoderm) (FIG. 2).
Following a lost-of function/gain-of function paradigm, an experiment was done to determine the effect of activating canonical Wnt signalling throughout the 12 days of otic differentiation. The small molecule compound BIO (6-bromoindirubin-3′-oxime, Tocris) is a potent inhibitor of GSK-3β kinase, a component of the β-catenin degradation complex. Inhibition of GSK-3β kinase activity disrupts the proteolytic breakdown of β-catenin and so Wnt activity is sustained (Meijer et al., 2003). BIO is well established in the literature and has been used to investigate survival and proliferation of hES cells and also lineage differentiation studies (Dravid et al., 2005) (Tseng et al., 2006). BIO was tested at a concentration of 2 μM (as recommended in the literature). […] In contrast to inhibiting canonical Wnt signalling throughout the 12 day protocol, activating canonical Wnt signalling throughout appears to downregulate gene expression of the otic and ectoderm markers, with upregulation of markers of mesoderm and endoderm.

[2] = test system: H14S9 hES cell line; test: Cell death in differentiating cultures; conditions: 20 μM IWR-1-endo in FGF medium
Description: The effect of the Wnt inhibitors was initially explored in the backdrop of a known differentiation protocol, which includes FGF 3 and FGF 10 supplementation from the outset. Experiments were carried out to determine the effect of canonical Wnt inhibition on the differentiation of otic progenitors in FGF medium (standard concentration of 50 ng/ml for each FGF 3 and FGF 10) and obtain an optimal working concentration. IWR-1-endo was present from day 0 of differentiation (day 0 refers to the initial seeding of the hES cells into differentiation conditions) and were maintained throughout the 12 day protocol. At the end of the differentiation protocol, RNA was extracted and PAX2, PAX8 and FOXG1 gene expression was quantified by real time PCR (QPCR) using SYBR Green (Sigma Aldrich). Delta Cts were calculated against the large ribosomal protein RPLPO housekeeping gene, and Delta Ct values were compared against the levels expressed by cells differentiated in the control DFNB medium (Livak and Schmittgen, 2001). FIG. 1 compares the dose responses of IWR-1-endo and the effect on the gene expression of PAX2, PAX8 and FOXG1 in the H14S9 hES cell line. Dimethyl sulfoxide (DMSO) was the vehicle for all small molecule compounds. A vehicle-only control was added to FGF medium to ascertain the effects of DMSO. […]

[3] = test system: H14S9 hES cell line; test: QPCR of otic marker gene expression after 12 day otic differentiation protocol
Description: The effect of the Wnt inhibitors was initially explored in the backdrop of a known differentiation protocol, which includes FGF 3 and FGF 10 supplementation from the outset. Experiments were carried out to determine the effect of canonical Wnt inhibition on the differentiation of otic progenitors in FGF medium (standard concentration of 50 ng/ml for each FGF 3 and FGF 10) and obtain an optimal working concentration. IWR-1-endo was present from day 0 of differentiation (day 0 refers to the initial seeding of the hES cells into differentiation conditions) and were maintained throughout the 12 day protocol. At the end of the differentiation protocol, RNA was extracted and PAX2, PAX8 and FOXG1 gene expression was quantified by real time PCR (QPCR) using SYBR Green (Sigma Aldrich). Delta Cts were calculated against the large ribosomal protein RPLPO housekeeping gene, and Delta Ct values were compared against the levels expressed by cells differentiated in the control DFNB medium (Livak and Schmittgen, 2001). FIG. 1 compares the dose responses of IWR-1-endo and the effect on the gene expression of PAX2, PAX8 and FOXG1 in the H14S9 hES cell line. Dimethyl sulfoxide (DMSO) was the vehicle for all small molecule compounds. A vehicle-only control was added to FGF medium to ascertain the effects of DMSO. […] This provided confidence that the Wnt inhibitor compound was exerting an effect on gene expression, and not the carrier vehicle. […] The optimal concentration of IWR-1-endo agrees with published findings in human stem cell studies (Chen et al., 2009, Hudson et al., 2012).
Further investigating the timing of canonical Wnt inhibition it was important to address whether inhibition was required throughout the whole 12-day differentiation protocol. Experiments were set up to inhibit canonical Wnt signalling for different lengths of time. In combination with FGF medium, Wnt inhibition took place from day 0 to day 4, day 0 to day 6, or day 0 to day 8. […] At the end of day 12, gene expression of PAX2, PAX8 and FOXG1 was quantified relative to the DFNB baseline condition, and is shown in FIG. 6. […]

[4] = 2 μM BIO in FGF medium throughout 12 days, one experiment
[5] = FGF medium with 10 μM IWR-1-endo, 12 days, compared to FGF condition

SMILES | gene expression of markers of mesoderm and endoderm [1, 4] | gene expression of the otic and ectoderm markers [1, 4] | cell death in the cultures [2] | ectodermal differentiation (PAX6, NESTIN gene expression) [1, 5] | gene expression of mesoderm and endoderm markers [1, 5] | AFP gene expression ([1]; FGF medium with IWR-1-endo, 12 days, compared to FGF condition) | gene expression of PAX2, PAX8 and FOXG1 ([3]; 10 μM IWR-1-endo in FGF medium (50 ng/ml FGF 3 and FGF 10), day 0 to day 12, relative to DFNB) | gene expression of PAX2, PAX8 or FOXG1 ([3]; IWR-1-endo day 0 to day 4 or day 0 to day 6, then FGF medium only until day 12, compared to FGF medium alone) | gene expression of the otic markers ([3]; canonical Wnt inhibition with IWR-1-endo day 0 to 8 or day 0 to 12, compared to standard FGF medium)
O=C1Nc2cc(Br)ccc2/C1=C1/Nc2ccccc2/C1=N\O [BIO, 6-bromoindirubin-3′-oxime] | upregulation | downregulate | – | – | – | – | – | – | –
O=C(Nc1cccc2cccnc12)c1ccc(N2C(=O)[C@@H]3[C@H](C2=O)[C@@H]2C=C[C@H]3C2)cc1 [IWR-1-endo] | – | – | very high levels of cell death | enhanced further over the FGF condition | significantly reduced compared to the FGF condition | significant downregulation | more robust and reproducible upregulation | did not significantly alter | Significant upregulation
